The results in this text go back to patent EP0032432A1, “Prostanoid compounds and their preparation and pharmaceutical formulations” (GLAXO GROUP LIMITED, priority 1980, dated 1981).

As usually defined, the pA2 is a measure of antagonist potency on a negative log scale.

The first data set relates to guinea-pig lung. Description: Potential bronchodilatation (method of Lulich et al., guinea-pig lung instead of cat lung; pA2 by Arunlakshana and Schild). The class given is cell-based. Particulars: Cavia porcellus, tested at concentrations between 2 x 10^-7 to 2x10^-5 mole/litre.
As for `Cc1ccc(-c2ccc(COC3CC(=O)C(N4CCCCC4)C3CC=CCCCC(=O)O)cc2)cc1` (racemic) [11g), [1α(Z),2β,5α]-(±)-7-[5-[[4'-Methyl(1,1'-biphenyl)-4-yl]ntethoxy]-3-oxo-2-(1-piperidinyl)cyclopentyl]-5-heptenoic acid], the Kb was 3.16 nM.

For `COc1ccc(-c2ccc(COC3CC(=O)C(N4CCCCC4)C3CC=CCCCC(=O)O)cc2)cc1` (racemic) [11e), [1α(Z),2β,5α]-(±)-7-[5-[[4'-Methoxy(1,1'biphenyl)-4-yl]methoxy]-3-oxo-2-(1-piperidinyl)cyclopentyl]-5-heptenoic acid], the Kb was 1.58 nM.

With `COc1ccc(-c2csc(COC3CC(O)C(N4CCOCC4)C3CC=CCCCC(=O)O)c2)cc1` (racemic) [Example 10b), [1α(Z),2β,3α,5α]-(±)-7-[3-Hydroxy-5-[[4-(4-methoxyphenyl)thien-2-yl]methoxy]-2-(4-morpholinyl)cyclopentyl]-5-heptenoic acid], the Kb is 1 nM.

In the case of `O=C(O)CCCC=CCC1C(OCc2ccc(Cc3ccccc3)cc2)CC(=O)C1N1CCS(=O)(=O)CC1` (racemic) [11i), [1α(Z),2β,5α]-(±)-7-[3-Oxo-5-[4-(phenylmethyl)-phenylmethoxy]-2-(4-thiomorpholinyl)cyclopentyl]-5-heptenoic acid, S-dioxide], the Kb is 3.16 nM.

The same data set, now with this note: tested at concentrations between 2 x 10^-7 to 2x10^-5 mole/litre.
Regarding `COc1ccc(-c2ccc(COC3CC(=O)C(N4CCOCC4)C3CCCCCCC(=O)O)cc2)cc1` (racemic) [18d), (1α,2β,5α)-(±)-5-[[-4'-Methoxy(1,1'-biphenyl)-4-yl]-2-(4-morpholinyl)-3-oxocyclopentaneheptanoic acid], the pA2 was 8.9.

Turning to `Cc1ccc(-c2ccc(COC3CC(=O)C(N4CCOCC4)C3CCCCCCC(=O)O)cc2)cc1` (racemic) [18a), (1α,2β,5α)-(±)-5-[[4'-Methyl(1,1'-biphenyl)-4-yl]methoxy]-2-(4-morpholinyl)-3-oxocyclopentaneheptanoic acid], the pA2 came to 8.6.

The test system of the next data set is human whole blood. Description: Inhibition of platelet aggregation (method of Born, collagen instead of ADP as pro-aggregatory agent; pA2 by Arunlakshana and Schild). Particulars: tested at a concentration of 2 pg/ml. The class given is cell-based. From the text:
As indicated above, our tests have shown that compounds of formula (1) inhibit blood platelet aggregation and/or have bronchodilatatory activity. The test we have used for bronchodilatation is as described by K.M. Lulich, et al in British Journal of Pharmacology 58, 71-79, (1976) except guinea-pig lung is used instead of cat lung. The test for inhibition of platelet aggregation is as described by G.V. Born in Nature 194, 927-929 (1962) except collagen is used instead of ADP as the pro-aggregatory agent.
The following compounds were tested at a concentration of 2 pg/ml for their ability to inhibit the aggregation of human whole blood according to the method of G V Born in Nature 194, 927-929 (1962) except collagen was used instead of ADP as the pro-aggregatory agent. pA2 values were determined using the standard procedures of Arunlakshana and Schild in Br J Pharmac Chemother, 14, 48-58 (1959): […]
`O=C(O)CCCC=CCC1C(OCc2ccc(-c3cccs3)cc2)CC(=O)C1N1CCOCC1` (racemic) [5f), [1α(Z),2β,5α]-(±)-7-[2-(4-Morpholinyl)-3-oxo-5-[4-(thien-2-yl)phenylmethoxy]cyclopentyl]-5-heptenoic acid]: the Kb was 44.7 nM.

The molecule `COc1ccc(-c2ccc(COC3CC(=O)C(N4CCOCC4)C3CC=CCCCC(=O)O)cc2)cc1` (racemic) [11a), [1α(Z),2β,5α]-(±)-7-[5-[[4'-Methoxy(1,1'-biphenyl)-4-yl]methoxy]-2-(4-morpholinyl)-3-oxocyclopentyl]-5-heptenoic acid] showed a Kb of 15.8 nM.

For the molecule `Cc1ccc(-c2ccc(COC3CC(=O)C(N4CCOCC4)C3CC=CCCCC(=O)O)cc2)cc1` (racemic) [Example 5a), [1α(Z),2β,5α-(±)-7-[5-[[4'-Methyl(1,1'-biphenyl)-4-yl]methoxy]-2-(4-morpholinyl)-3-oxocyclopentyl]-5-heptenoic acid], the Kb is 15.8 nM.

Regarding `O=C(O)CCCC=CCC1C(OCc2ccc(Cc3ccccc3)cc2)CC(=O)C1N1CCOCC1` (racemic) [11b), 1α(Z),2β,5α]-(±)-7-[2-(4-Morpholinyl)-3-oxo-5-[[4-(phenylmethyl)phenyl]methoxy]cyclopentyl]-5-heptenoic acid], the Kb is 39.8 nM.

The next data set has as its system dogs. As to the kind of experiment: Toxicity, oral administration to dogs. The class given is in vivo. Particulars: given orally to dogs at a dose of 1 mg/kg. The text has this:
The compounds are in general non-toxic at therapeutically useful doses.
With `O=C(O)CCCC=CCC1C(OCc2ccc(Cc3ccccc3)cc2)CC(=O)C1N1CCCCC1` (racemic) [Example 11f), [1α(Z),2β,5α]-(±)-7-[3-Oxo-5-[4-(phenylmethyl)phenylmethoxy]-2-(1-piperidinyl)cyclopentyl]-5-heptenoic acid], the adverse effects result is “no adverse effects”.

With `O=C(O)CCCC=CCC1C(OCc2ccc(-c3ccc(-c4ccccc4)cc3)cc2)CC(=O)C1N1CCOCC1` (racemic) [Example 11c), [1α(Z),2β,5α]-(±)-7-[2-(4-Morpholinyl)-3-oxo-5-[[(1,1';4.1"-terphenyl)-4-yl]methoxy]cyclopentyl]-5-heptenoic acid], the adverse effects result was “no adverse effects”.

On to `COc1ccc(-c2ccc(COC3CC(=O)C(N4CCOCC4)C3CC=CCCCC(=O)O)cc2)cc1` (racemic) [11a), [1α(Z),2β,5α]-(±)-7-[5-[[4'-Methoxy(1,1'-biphenyl)-4-yl]methoxy]-2-(4-morpholinyl)-3-oxocyclopentyl]-5-heptenoic acid], for which the adverse effects result was “no adverse effects”.
